Results as given in patent US20240383913A1, “THIOPHENE RING COMPOUND, PREPARATION METHOD THEREFOR AND APPLICATION THEREOF” (CENTER FOR EXCELLENCE IN MOLECULAR CELL SCIENCE, CHINESE …, priority 2021, published 2024).

Key:
dopamine D2 receptors [1] = target: T1, dopamine D2 receptors (Homo sapiens (Human), UniProt P14416); assay: Dopamine D2 receptor Gαi1 BRET (G protein trimer dissociation); assay type: cell-based; settings: for Emax: read-out: Gαi1 BRET (Emax %);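 as to all read-outs here: transfected cells co-expressing D2 receptor, Gαi1-Rluc, Gβ3 and Gγ9-GFP, BRET with coelenterazine 400a at 5 µM read as G protein trimer dissociation, graded drug concentrations in duplicate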
Experimental: (§1) To examine the downstream G protein signaling pathway mediated by dopamine D2 receptors, on the first day, a 6 cm culture dish was used for transfection with 1 μg of dopamine D2 receptors, 1 μg of Gαi1 containing a C-terminal seaweed luciferase (Gαi1-Rluc), 1 μg of Gβ3, 1 μg of Gγ9 containing C-terminal green fluorescent protein (Gγ9-GFP), and 16 μL of PEI. At the same time, in order to examine the downstream β-arrestin2 signaling pathway mediated by dopamine D2 receptors, on the first day, a 6 cm culture dish was used for transfection with 500 μg of dopamine D2 receptors containing C-terminal seaweed luciferase (D2-Rluc), 500 μg of G protein-coupled receptor kinase 2 (GRK2), 2500 μg of β-arrestin2 containing N-terminal green fluorescent protein (GFP2-ARRB2) mixed with 14 μL of PEI. The next day, the confluent cells of a 6 cm culture dish were digested and reseeded into a 96-well plate with 100 μL of culture medium added to each well. On the third day, the drugs were added for test. The 96-well plate was taken out from the cell incubator to decant the culture medium, 40 μL of the substrate coelenterazine 400a (final concentration of 5 μM) was added to each well, and then 20 μL of different drugs were added sequentially from left to right to ensure that the final concentration of the drug decreased gradually from bottom to top, with two replicates per treatment. Finally, the prepared samples were loaded on machine for test. The machine readout value reflected the recruitment of β-arrestin2 to the membrane or the dissociation of G protein trimer. The former indicated the degree of activation of the β-arrestin2 signaling pathway downstream of the dopamine D2 receptors, and the latter indicated the degree of activation of the G protein signaling pathway downstream of the dopamine D2 receptors.

5-HT2A receptor [2] = target: T2, 5-HT2A receptor (Homo sapiens (Human), UniProt P28223); assay: Affinity for 5-HT2A receptors, radioligand competition with [3H]-ketanserin; assay type: binding; settings: 293T membrane transiently expressing 5-HT2A
Experimental: The affinity of the compounds of the present disclosure for the 5-HT2A receptors was determined by the method of radioligand competition experiment. In the first step, a cell membrane component containing specific 5-HT2A receptor was prepared. A 10 cm dish was used for transfection with 10 ng of the 5-HT2A receptor and 40 μL of PEI. After 48 hours, the 10 cm dish was taken out from the cell incubator and the cultured cells had expressed the 5-HT2A receptor. A vacuum pump was used to suck off the culture medium, 3 mL of lysis buffer was added to each culture dish, and the cells were placed in a 4° C. cold room for 10 minutes. After the cells were detached, the cells were transferred to a 15 mL centrifuge tube and centrifuged at 1500 rpm for 5 minutes at 4° C., and the supernatant was discarded. The cell pellet was transferred to a tissue homogenizer, and 3 mL of lysis buffer was added and fully ground until the cells were broken. Then, cell suspension was equally aliquoted into several EP tubes, centrifuged at 12000 rpm for 5 minutes at 4° C., and the supernatant was discarded. The precipitate was the cell membrane component containing the 5-HT2A receptor. […] First, a standard binding buffer was added to the cell membrane component containing the 5-HT2A receptor, and the cell membrane was disrupted and resuspended with an electric tissue homogenizer. 30 μL of membrane protein suspension was added to each well of a 96-well plate. Then, 30 μL of different drugs were added to the 96-well plate sequentially from bottom to top to ensure that the final drug concentrations were 10^−5 M, 10^−6 M, 10^−7 M, 10^−8 M, 10^−9 M, and 0 M, with two replicates per treatment. Next, 30 μL of [3H]-ketanserin was added to each well of the 96-well plate. The plate was incubated for 2 hours at room temperature in the dark. Detection was conducted. The machine readout value reflected the amount of [3H]-ketanserin bound on the membrane, and after further data processing, the affinity Ki values of different compounds for the 5-HT2A receptor were obtained.

5-HT2A receptor [3] = target: T2, 5-HT2A receptor; assay: 5-HT2A receptor β-arrestin2 BRET (recruitment); assay type: cell-based; settings: 5-HT2A receptor, β-arrestin2 pathway; for EC50: read-out: β-arrestin2 BRET EC50;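 as to all read-outs here: cells co-expressing Rluc-tagged 5-HT2A receptor, GRK2 and GFP2-tagged β-arrestin2, read by BRET with coelenterazine 400a (5 µM) across graded drug concentrations in duplicate, signal reflecting β-arrestin2 membrane recruitment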
Experimental: (§2) To examine the downstream G protein signaling pathway mediated by 5-HT2A receptors, on the first day, a 6 cm culture dish was used for transfection with 1 μg of 5-HT2A receptors, 1 μg of Gαq containing C-terminal seaweed luciferase (Gαq-Rluc), 1 μg of Gβ3, 1 μg of Gγ9 containing C-terminal green fluorescent protein (Gγ9-GFP), and 16 μL of PEI. At the same time, in order to examine the downstream β-arrestin2 signaling pathway mediated by 5-HT2A receptors, on the first day, a 6 cm culture dish was used for transfection with 500 μg of 5-HT2A receptors containing C-terminal seaweed luciferase (5-HT2A-Rluc), 500 μg of G protein-coupled receptor kinase 2 (GRK2), 2500 μg of β-arrestin2 containing N-terminal green fluorescent protein (GFP2-ARRB2), and 14 μL of PEI. The next day, the confluent cells of a 6 cm culture dish were digested and reseeded into a 96-well plate with 100 μL of culture medium was added to each well. On the third day, the drugs were added for test. The 96-well plate was taken out from the cell incubator to decant the culture medium, 40 μL of the substrate coelenterazine 400a (final concentration of 5 μM) was added to each well, and then 20 μL of different drugs were added sequentially from left to right to ensure that the final concentration of the drug decreased gradually from bottom to top, with two replicates per treatment. Finally, the prepared samples were loaded on machine for test. The machine readout value reflected the recruitment of β-arrestin2 to the membrane or the dissociation of G protein trimer. The former indicated the degree of activation of the β-arrestin2 signaling pathway downstream of the 5-HT2A receptors, and the latter indicated the degree of activation of the G protein signaling pathway downstream of the 5-HT2A receptors.

dopamine D2 receptors [4] = target: T1, dopamine D2 receptors; assay: Affinity for dopamine D2 receptors, radioligand competition with [3H]-Methylspiperone; assay type: binding; settings: 293T membrane transiently expressing D2
Experimental: The affinity of the compounds of the present disclosure for the dopamine D2 receptors was determined by the method of radioligand competition experiment. In the first step, a cell membrane component containing specific dopamine D2 receptors was prepared. A 10 cm culture dish was used for transfection with 10 ng of the dopamine D2 receptors and 40 μL of polyethylenimine (PEI hereafter). After 48 hours, the 10 cm culture dish was taken out from the cell culture incubator and the cultured cells had expressed the dopamine D2 receptors. A vacuum pump was used to suck off the culture medium, 3 mL of lysis buffer was added to each culture dish, and the cells were placed in a 4° C. cold room for 10 minutes. After the cells were detached, the cells were transferred to a 15 mL centrifuge tube and centrifuged at 1500 rpm for 5 minutes at 4° C., and the supernatant was discarded. The cell pellet was transferred to a tissue homogenizer, and 3 mL of lysis buffer was added and fully ground until the cells were broken. Then, cell suspension was equally aliquoted into several EP tubes, centrifuged at 12000 rpm for 5 minutes at 4° C., and the supernatant was discarded. The precipitate was the cell membrane component containing the dopamine D2 receptors. […] First, a standard binding buffer was added to the cell membrane component containing the dopamine D2 receptors, and the cell membrane was disrupted and resuspended with an electric tissue homogenizer. 30 μL of membrane protein suspension was added to each well of a 96-well plate. Then, 30 μL of different drugs were added to the 96-well plate sequentially from bottom to top to ensure that the final drug concentrations were 10^−5 M, 10^−6 M, 10^−7 M, 10^−8 M, 10^−9 M, and 0 M, with two replicates per treatment. Next, 30 μL of [3H]-Methylspiperone was added to each well of the 96-well plate. The plate was incubated for 2 hours at room temperature in the dark. Detection was conducted. The machine readout value reflected the amount of [3H]-Methylspiperone bound on the membrane, and after further data processing, the affinity Ki values of different compounds for the dopamine D2 receptors were obtained.

5-HT1A receptor [5] = target: T3, 5-HT1A receptor (Homo sapiens (Human), UniProt P08908); assay: Affinity for 5-HT1A receptors, radioligand competition with [3H]-LSD; assay type: binding; settings: 293T membrane transiently expressing 5-HT1A; [3H]-LSD; read-out: 5-HT1A affinity Ki;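 also: membranes from cells transiently transfected with 5-HT1A receptor, bound [3H]-LSD displaced by compound at 10^-9 to 10^-5 M, 2 h incubation at room temperature in the dark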
Experimental: (§3) The affinity of the compounds of the present disclosure for the 5-HTIA receptors was determined by the method of radioligand competition experiment. In the first step, a cell membrane component containing specific 5-HTIA receptor was prepared. A 10 cm culture dish was used for transfection with 10 ng of the 5-HTIA receptor and 40 μL of PEI. After 48 hours, the 10 cm culture dish was taken out from the cell incubator and the cultured cells had expressed the 5-HTIA receptor. A vacuum pump was used to suck off the culture medium, 3 mL of lysis buffer was added to each culture dish, and the cells were placed in a 4° C. cold room for 10 minutes. After the cells were detached, the cells were transferred to a 15 mL centrifuge tube and centrifuged at 1500 rpm for 5 minutes at 4° C., and the supernatant was discarded. The cell pellet was transferred to a tissue homogenizer, and 3 mL of lysis buffer was added and fully ground until the cells were broken. Then, cell suspension was equally aliquoted into several EP tubes, centrifuged at 12000 rpm for 5 minutes at 4° C., and the supernatant was discarded. The precipitate was the cell membrane component containing the 5-HT1A receptor. […] First, a standard binding buffer was added to the cell membrane component containing the 5-HT1A receptor, and the cell membrane was disrupted and resuspended with an electric tissue homogenizer. 30 μL of membrane protein suspension was added to each well of a 96-well plate. Then, 30 μL of different drugs were added to the 96-well plate sequentially from bottom to top to ensure that the final drug concentrations were 10^−5 M, 10^−6 M, 10^−7 M, 10^−8 M, 10^−9 M, and 0 M, with two replicates per treatment. Next, 30 μL of [3H]-LSD was added to each well of the 96-well plate. The plate was incubated for 2 hours at room temperature in the dark. Detection was conducted. The machine readout value reflected the amount of [3H]-LSD bound on the membrane, and after further data processing, the affinity Ki values of different compounds for the 5-HTIA receptor were obtained. To examine the downstream G protein signaling pathway mediated by 5-HTIA receptors, on the first day, a 6 cm culture dish was used for transfection with 1 μg of 5-HTIA receptors, 1 μg of Gαi1 containing C-terminal seaweed luciferase (Gαi1-Rluc), 1 μg of Gβ3, 1 μg of Gγ9 containing C-terminal green fluorescent protein (Gγ9-GFP), and 16 μL of PEI. The next day, the confluent cells of a 6 cm culture dish were digested and reseeded into a 96-well plate with 100 μL of culture medium was added to each well. On the third day, the drugs were added for test. The 96-well plate was taken out from the cell incubator to decant the culture medium, 40 μL of the substrate coelenterazine 400a (final concentration of 5 μM) was added to each well, and then 20 μL of different drugs were added sequentially from left to right to ensure that the final concentration of the drug decreased gradually from bottom to top, with two replicates per treatment. Finally, the prepared samples were loaded on machine for test. The machine readout value reflected the dissociation of G protein trimer, and thereby indicated the degree of activation of the G protein signaling pathway downstream of the 5-HTIA receptors.

5-HT1A receptor [6] = target: T3, 5-HT1A receptor; assay: 5-HT1A receptor Gαi1 BRET (G protein trimer dissociation); assay type: cell-based; settings: 5-HT1A receptor, G protein pathway; for EC50: read-out: Gαi1 BRET EC50;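 as to all read-outs here: cells transiently co-expressing 5-HT1A receptor, luciferase-tagged Gαi1, Gβ3 and GFP-tagged Gγ9, seeded in 96-well plates for BRET measurement of G protein signaling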
Experimental: as §3

dopamine D2 receptors [7] = target: T1, dopamine D2 receptors; assay: Dopamine D2 receptor β-arrestin2 BRET (recruitment); assay type: cell-based; settings: for Emax: read-out: β-arrestin2 BRET (Emax %);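 as to all read-outs here: cells co-expressing Rluc-fused D2 receptor, GRK2 and GFP2-fused β-arrestin2, BRET read with coelenterazine 400a after adding drug over a concentration series, in duplicate wells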
Experimental: as §1

5-HT2A receptor [8] = target: T2, 5-HT2A receptor; assay: 5-HT2A receptor Gαq BRET (G protein trimer dissociation); assay type: cell-based; settings: for EC50: read-out: Gαq BRET EC50; for Emax: read-out: Gαq BRET (Emax %);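 as to all read-outs here: cells transfected with 5-HT2A receptor, Gαq-Rluc, Gβ3 and Gγ9-GFP, BRET read with coelenterazine 400a (5 µM) across a compound dilution series in duplicate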
Experimental: as §2

[9] = D2 receptor, G protein pathway, read-out: Gαi1 BRET EC50
[10] = 5-HT2A receptor, G protein pathway
[11] = D2 receptor, β-arrestin2 pathway, read-out: β-arrestin2 BRET EC50
[12] = D2 receptor, β-arrestin2 pathway

T3 sequence (P08908 whole entry): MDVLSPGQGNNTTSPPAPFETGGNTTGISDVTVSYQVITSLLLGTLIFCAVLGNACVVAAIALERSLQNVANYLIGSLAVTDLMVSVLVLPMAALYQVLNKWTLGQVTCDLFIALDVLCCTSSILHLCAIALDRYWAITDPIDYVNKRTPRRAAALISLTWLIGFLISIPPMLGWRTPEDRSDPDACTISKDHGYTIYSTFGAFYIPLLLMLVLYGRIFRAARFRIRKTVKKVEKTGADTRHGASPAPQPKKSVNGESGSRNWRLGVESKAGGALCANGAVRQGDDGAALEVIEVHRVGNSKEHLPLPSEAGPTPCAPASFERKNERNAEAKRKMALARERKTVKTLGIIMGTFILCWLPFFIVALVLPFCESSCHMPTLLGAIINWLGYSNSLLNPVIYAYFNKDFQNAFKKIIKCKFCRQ
T1 sequence (P14416 whole entry): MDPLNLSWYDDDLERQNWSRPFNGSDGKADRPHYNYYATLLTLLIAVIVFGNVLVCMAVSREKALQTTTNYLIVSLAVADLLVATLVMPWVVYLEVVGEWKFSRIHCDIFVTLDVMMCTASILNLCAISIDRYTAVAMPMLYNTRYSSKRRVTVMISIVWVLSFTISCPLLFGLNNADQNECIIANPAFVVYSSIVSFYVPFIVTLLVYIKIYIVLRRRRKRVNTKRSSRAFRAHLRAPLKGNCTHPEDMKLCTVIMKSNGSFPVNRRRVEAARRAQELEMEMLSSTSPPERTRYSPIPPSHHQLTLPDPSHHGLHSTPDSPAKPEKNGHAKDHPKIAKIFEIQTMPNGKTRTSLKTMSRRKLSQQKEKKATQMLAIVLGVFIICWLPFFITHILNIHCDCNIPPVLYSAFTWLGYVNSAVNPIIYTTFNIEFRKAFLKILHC
T2 sequence (P28223 whole entry): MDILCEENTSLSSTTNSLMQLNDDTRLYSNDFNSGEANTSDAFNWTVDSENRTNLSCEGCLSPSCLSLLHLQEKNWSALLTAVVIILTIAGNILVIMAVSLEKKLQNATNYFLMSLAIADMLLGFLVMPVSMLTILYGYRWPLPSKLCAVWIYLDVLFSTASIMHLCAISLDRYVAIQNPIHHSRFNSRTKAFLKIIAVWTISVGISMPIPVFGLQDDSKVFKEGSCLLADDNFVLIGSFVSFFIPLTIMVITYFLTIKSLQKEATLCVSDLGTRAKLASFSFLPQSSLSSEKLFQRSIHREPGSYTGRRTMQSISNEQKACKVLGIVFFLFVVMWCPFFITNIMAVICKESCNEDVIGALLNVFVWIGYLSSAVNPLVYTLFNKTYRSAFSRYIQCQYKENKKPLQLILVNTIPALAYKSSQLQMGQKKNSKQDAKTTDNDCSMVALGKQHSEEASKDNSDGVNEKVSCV

Compound	Emax (dopamine D2 receptors [1]) [%]	Ki (5-HT2A receptor [2]) [nM]	Ki (dopamine D2 receptors [4]) [nM]	Ki (5-HT1A receptor [5]) [nM]	Emax (5-HT1A receptor [6]) [%]	EC50 (5-HT1A receptor [6]) [nM]	Emax (dopamine D2 receptors [7]) [%]	EC50 (dopamine D2 receptors [1]; [9]) [nM]	EC50 (5-HT2A receptor [8]; [10]) [nM]	Emax (5-HT2A receptor [8]) [%]	EC50 (dopamine D2 receptors [7]; [11]) [nM]	also measured
c1csc(CCN2CCN3c4cccc5scc(c45)CC3C2)c1 (stereo not drawn) [Compound I-6, 8-(2-(Thiophen-2-Yl)Ethyl)-6,6a,7,8,9,10-Hexahydropyrazino[1,2-a]Thieno [4,3,2-De]Quinoline]	58.4	7250	5730	2730	90	3230	20.2	–	–	–	–	EC50 (dopamine D2 receptors [1]): 342 nM; Emax (5-HT2A receptor [3]): 45.4%; EC50 (5-HT2A receptor [3]): 8340 nM; EC50 (dopamine D2 receptors [7]): 299 nM
O=C(CCCN1CCN2c3cccc4scc(c34)CC2C1)c1ccc(F)cc1 (stereo not drawn) [Compound I-11, 1-(4-Fluorophenyl)-4-(6a,7,9,10-Tetrahydropyrazino[1,2-a]Thieno [4,3,2-De]Quinolin-8 (6H)-Yl) Butan-1-One]	–	320	470	4540	28	3870	–	–	–	–	–	–
O=C1c2ccccc2CCCN1CCCCN1CCN2c3cccc4scc(c34)CC2C1 (stereo not drawn) [Compound I-25, 2-(4-(6a,7,9,10-Tetrahydropyrazino[1,2-a]Thieno [4,3,2-De]Quinolin-8 (6H)-Yl)Butyl)-2,3,4,5-Tetrahydro-1H-Benzo[c]Azepin-1-One]	67.9	300	100	770	82	1320	49.2	27.8	969	17.8	61.5	–
c1cc2c3c(csc3c1)CC1CN(CCCOc3ccc4c(c3)OCO4)CCN21 (stereo not drawn) [Compound I-16, 8-(3-(Benzo[d][1,3]Dioxol-5-Yloxy) Propyl)-6,6a, 7,8,9,10-Hexahydropyrazino[1,2-a]Thieno [4,3,2-De]Quinoline]	57.9	> 10000	1550	560	88	2720	37.7	44.8	340	19.5	289	–
O=C(NCCN1CCN2c3cccc4scc(c34)CC2C1)c1ccc(F)cc1 (stereo not drawn) [Compound I-12, 4-Fluoro-N-(2-(6a,7,9,10-Tetrahydropyrazino[1,2-a]Thieno [4,3,2-De]Quinolin-8 (6H)-Yl)Ethyl)Benzamide]	–	1520	1210	590	93	1320	–	–	–	–	–	Emax (5-HT2A receptor [3]): 5.7%; EC50 (5-HT2A receptor [3]): 5240 nM
CN(C)C(=O)N[C@H]1CC[C@H](CCN2CCN3c4cccc5scc(c45)C[C@@H]3C2)CC1 [(+)-I-27]	–	450	> 10000	170	–	206	–	9.16	–	–	16	Gαi1 BRET (Emax %) (dopamine D2 receptors [1]; D2 receptor, G protein pathway): (69.54%); Gαi1 BRET (Emax %) (5-HT1A receptor [6]): (60%); β-arrestin2 BRET (Emax %) (dopamine D2 receptors [7]; [12]): (45.78%)
O=C(CN1CCN2c3cccc4scc(c34)CC2C1)c1ccc(F)cc1 (stereo not drawn) [Compound I-10, 1-(4-Fluorophenyl)-2-(6a,7,9,10-Tetrahydropyrazino[1,2-a]Thieno [4,3,2-De]Quinolin-8 (6H)-Yl) Ethan-1-One]	17.1	–	2060	970	71	7200	21.5	796	–	110	14.3	Emax (5-HT2A receptor [3]): 71.6%
c1cc2c3c(csc3c1)CC1CN(CC3CC3)CCN21 (stereo not drawn) [Compound I-4, 8-(Cyclopropylmethyl)-6,6a,7,8,9,10-Hexahydropyrazino[1,2-a]Thieno [4,3,2-De]Quinoline]	–	–	320	590	69	12800	–	36.3	–	–	11.2	Emax (dopamine D2 receptors [1]; D2 receptor, G protein pathway): 25%; Emax (dopamine D2 receptors [7]; [12]): 16.4%
c1ccc(-c2cccc(CN3CCN4c5cccc6scc(c56)CC4C3)c2)cc1 (stereo not drawn) [Compound I-7, 8-([1, l′-Biphenyl]-3-Ylmethyl)-6,6a, 7,8,9, 10-Hexahydropyrazino[1,2-a]Thieno [4,3,2-De]Quinoline]	–	–	–	39300	–	–	–	–	140	36.9	–	–
O=C(N[C@H]1CC[C@H](CCN2CCN3c4cccc5scc(c45)CC3C2)CC1)N1CCCC1 (stereo partly drawn) [Compound I-28, N-(4-(2-(6a,7,9,10-Tetrahydropyrazino[1,2-a]Thieno [4,3,2-De]Quinolin-8 (6H)-Yl)Ethyl) Trans-Cyclohexyl) Pyrrolidine-1-Carboxamide]	30.7	520	80	50	59	142	34.2	18	184	12.5	38.7	–
O=C1CCc2ccc(OCCCN3CCN4c5cccc6scc(c56)CC4C3)cc2N1 (stereo not drawn) [Compound I-18, 7-(3-(6a,7,9,10-Tetrahydropyrazino[1,2-a]Thieno [4,3,2-De]Quinolin-8 (6H)-Yl) Propoxy)-3,4-Dihydroquinolin-2 (1H)-One]	91.3	160	270	10	82	696	71.9	33.9	–	–	279	–
c1cc2c3c(csc3c1)CC1CN(CCCCOc3ccc4scnc4c3)CCN21 (stereo not drawn) [Compound I-21, 8-(4-(Benzo[d]Thiazol-5-Yloxy)Butyl)-6,6a,7,8,9,10-Hexahydropyrazino[1,2-a]Thieno [4,3,2-De]Quinoline]	54	> 10000	7180	3220	68	8180	32.6	146	4380	16.6	233	–
O=C1NCCN1c1cccc(CN2CCN3c4cccc5scc(c45)CC3C2)c1 (stereo not drawn) [Compound I-9, 1-(3-((6a,7,9,10-Tetrahydropyrazino[1,2-a]Thieno [4,3,2-De]Quinolin-8 (6H)-Yl)Methyl)Phenyl) Imidazolidin-2-One]	–	690	800	5460	55	14400	–	281	747	25	28.6	Emax (dopamine D2 receptors [1]; D2 receptor, G protein pathway): 23.1%; Emax (dopamine D2 receptors [7]; [12]): 24.2%
O=C1CCc2ccc(OCCCCN3CCN4c5cccc6scc(c56)CC4C3)cc2N1 (stereo not drawn) [Compound I-20, 7-(4-(6a,7,9,10-Tetrahydropyrazino[1,2-a]Thieno [4,3,2-De]Quinolin-8 (6H)-Yl) Butoxy)-3,4-Dihydroquinolin-2 (1H)-One]	64	640	30	160	72	1540	35.6	107	5590	17.8	464	–
O=C(NCCN1CCN2c3cccc4scc(c34)CC2C1)C1CCOCC1 (stereo not drawn) [Compound I-14, N-(2-(6a,7,9,10-Tetrahydropyrazino[1,2-a]Thieno [4,3,2-De]Quinolin-8 (6H)-Yl)Ethyl)Tetrahydro-2H-Pyran-4-Carboxamide]	–	1190	> 10000	1300	86	2000	–	–	475	–	–	β-arrestin2 BRET (Emax %) (5-HT2A receptor [3]): (21.00%); EC50 (5-HT2A receptor [3]): 123 nM; Gαq BRET (Emax %) (5-HT2A receptor [8]; [10]): (29.10%)
O=c1ccc2ccc(OCCCCN3CCN4c5cccc6scc(c56)CC4C3)cc2[nH]1 (stereo not drawn) [Compound I-19, 7-(4-(6a,7,9,10-Tetrahydropyrazino[1,2-a]Thieno [4,3,2-De]Quinolin-8 (6H)-Yl) Butoxy) Quinolin-2 (1H)-One]	74.6	1410	10	30	81	3670	64.5	8.26	1440	15.6	43.9	–
O=C1[C@H]2CCCC[C@H]2C(=O)N1CCCCN1CCN2c3cccc4scc(c34)CC2C1 (stereo partly drawn) [Compound I-26]	47.9	–	–	400	88	489	19.8	573	339	26	44.8	–
c1ccc(OCCN2CCN3c4cccc5scc(c45)CC3C2)cc1 (stereo not drawn) [Compound I-15, 8-(2-Phenoxyethyl)-6,6a,7,8,9,10-Hexahydropyrazino[1,2-a]Thieno [4,3,2-De]Quinoline]	18.6	1710	5500	840	57	5260	10.5	334	–	–	164	Emax (5-HT2A receptor [3]): 10%; EC50 (5-HT2A receptor [3]): 1770 nM
